Results published in PMC5218480 (PLoS ONE, 2017).

Test system: MV-4-11 cells
Assay: Gene expression microarray analysis (Affymetrix PrimeView) and GSEA
Assay type: cell-based, human
Set-up: RFU PODN (11730768_x_at) / Fold change /veh PODN (11730768_x_at) / RFU LINC00158 (11744669_a_at) / Fold change /veh LINC00158 (11744669_a_at) / RFU DUSP10 (11751237_a_at) / Fold change /veh DUSP10 (11751237_a_at) / RFU ID3 (11757404_x_at) / Fold change /veh ID3 (11757404_x_at) / RFU PLEKHG5 (11737974_s_at) / Fold change /veh PLEKHG5 (11737974_s_at) / RFU LRRC4B (11730491_at) / Fold change /veh LRRC4B (11730491_at) / RFU GIMAP4 (11747438_a_at) / Fold change /veh GIMAP4 (11747438_a_at) / RFU KRT8 (11758183_x_at) / Fold change /veh KRT8 (11758183_x_at) / RFU CNN1 (11734310_a_at) / Fold change /veh CNN1 (11734310_a_at) / RFU VPS37D (11726825_at) / Fold change /veh VPS37D (11726825_at) / RFU C10orf10 (11716522_x_at) / Fold change /veh C10orf10 (11716522_x_at) / RFU KIR2DL2 /// KIR2DL4 /// KIR2DL5A /// KIR2DL5B /// KIR2DS1 /// KIR2DS2 /// KIR2DS3 /// KIR2DS4 /// KIR3DL3 /// KIR3DL3 /// KIR3DS1 (11738374_at) / Fold change /veh KIR2DL2 /// KIR2DL4 /// KIR2DL5A /// KIR2DL5B /// KIR2DS1 /// KIR2DS2 /// KIR2DS3 /// KIR2DS4 /// KIR3DL3 /// KIR3DL3 /// KIR3DS1 (11738374_at) / RFU C1QL1 (11718748_at) / Fold change /veh C1QL1 (11718748_at) / RFU TMPRSS4 (11747572_a_at) / Fold change /veh TMPRSS4 (11747572_a_at) / RFU HAMP (11756126_x_at) / Fold change /veh HAMP (11756126_x_at) / RFU RNFT2 (11725882_a_at) / Fold change /veh RNFT2 (11725882_a_at) / RFU NR4A2 (11747474_a_at) / Fold change /veh NR4A2 (11747474_a_at) / RFU ABCC12 (11746883_a_at) / Fold change /veh ABCC12 (11746883_a_at) / RFU TMEM136 (11760407_x_at) / Fold change /veh TMEM136 (11760407_x_at) / RFU CLDN22 /// WWC2 (11732394_at) / Fold change /veh CLDN22 /// WWC2 (11732394_at) / RFU HLA-DPB1 (11760878_x_at) / Fold change /veh HLA-DPB1 (11760878_x_at) / RFU SPINT1 (11716480_a_at) / Fold change /veh SPINT1 (11716480_a_at) / RFU GAP43 (11754022_s_at) / Fold change /veh GAP43 (11754022_s_at) / RFU A4GNT (11735810_at) / Fold change /veh A4GNT (11735810_at) / RFU PRB3 (11715151_x_at) / Fold change /veh PRB3 (11715151_x_at) / RFU TUBB4B (11761932_at) / Fold change /veh TUBB4B (11761932_at) / RFU CAPN14 (11732068_a_at) / Fold change /veh CAPN14 (11732068_a_at) / RFU TMCC2 (11721928_a_at) / Fold change /veh TMCC2 (11721928_a_at) / RFU IRGQ (11745062_a_at) / Fold change /veh IRGQ (11745062_a_at) / RFU FAM174B (11720279_a_at) / Fold change /veh FAM174B (11720279_a_at) / RFU TMPRSS4 (11748680_a_at) / Fold change /veh TMPRSS4 (11748680_a_at) / RFU FAM212B (11763350_a_at) / Fold change /veh FAM212B (11763350_a_at) / RFU PLEKHG5 (11743358_a_at) / Fold change /veh PLEKHG5 (11743358_a_at) / RFU ZSCAN30 (11745921_a_at) / Fold change /veh ZSCAN30 (11745921_a_at) / RFU CMKLR1 (11741424_a_at) / Fold change /veh CMKLR1 (11741424_a_at) / RFU LOC101060620 /// MAPK8IP1 (11723275_at) / Fold change /veh LOC101060620 /// MAPK8IP1 (11723275_at) / RFU SPTSSB (11747773_x_at) / Fold change /veh SPTSSB (11747773_x_at) / RFU PRSS12 (11739890_at) / Fold change /veh PRSS12 (11739890_at) / RFU BIN1 (11741810_x_at) / Fold change /veh BIN1 (11741810_x_at) / RFU WNT11 (11732464_a_at) / Fold change /veh WNT11 (11732464_a_at) / RFU C10orf10 (11716521_a_at) / Fold change /veh C10orf10 (11716521_a_at) / RFU C5orf56 (11738089_at) / Fold change /veh C5orf56 (11738089_at) / RFU CYB561 (11721691_x_at) / Fold change /veh CYB561 (11721691_x_at) / RFU ANKRD19P (11752326_a_at) / Fold change /veh ANKRD19P (11752326_a_at) / RFU OR2T12 /// OR2T33 /// OR2T8 (11738714_s_at) / Fold change /veh OR2T12 /// OR2T33 /// OR2T8 (11738714_s_at) / RFU VCAN (11748164_a_at) / Fold change /veh VCAN (11748164_a_at) / RFU JSRP1 (11732532_at) / Fold change /veh JSRP1 (11732532_at) / RFU KRTAP10-11 (11738290_x_at) / Fold change /veh KRTAP10-11 (11738290_x_at) / RFU MYO3A (11730013_a_at) / Fold change /veh MYO3A (11730013_a_at) / RFU EBF3 (11725865_a_at) / Fold change /veh EBF3 (11725865_a_at) / RFU CAMK2N1 (11719241_x_at) / Fold change /veh CAMK2N1 (11719241_x_at) / RFU C5orf56 (11738088_a_at) / Fold change /veh C5orf56 (11738088_a_at) / RFU OLFML3 (11715873_a_at) / Fold change /veh OLFML3 (11715873_a_at) / RFU LOC100653217 /// NTM (11731650_a_at) / Fold change /veh LOC100653217 /// NTM (11731650_a_at) / RFU MAPK11 (11762145_a_at) / Fold change /veh MAPK11 (11762145_a_at) / RFU FIZ1 (11724087_x_at) / Fold change /veh FIZ1 (11724087_x_at) / RFU OASL (11726364_x_at) / Fold change /veh OASL (11726364_x_at) / RFU SOX15 (11748057_x_at) / Fold change /veh SOX15 (11748057_x_at) / RFU CD79A (11719716_a_at) / Fold change /veh CD79A (11719716_a_at) / RFU HIST1H1D (11736915_at) / Fold change /veh HIST1H1D (11736915_at) / RFU CASKIN2 (11723855_a_at) / Fold change /veh CASKIN2 (11723855_a_at) / RFU LOC730098 (11760151_x_at) / Fold change /veh LOC730098 (11760151_x_at) / RFU OR4N2 (11742367_at) / Fold change /veh OR4N2 (11742367_at) / RFU PRRT2 (11749266_a_at) / Fold change /veh PRRT2 (11749266_a_at) / RFU SNX32 (11753110_a_at) / Fold change /veh SNX32 (11753110_a_at) / RFU CDHR5 (11726645_a_at) / Fold change /veh CDHR5 (11726645_a_at) / RFU RCAN1 (11760418_a_at) / Fold change /veh RCAN1 (11760418_a_at) / RFU FAM167A (11723789_a_at) / Fold change /veh FAM167A (11723789_a_at) / RFU FAM26E (11764081_at) / Fold change /veh FAM26E (11764081_at) / RFU ISYNA1 (11749810_s_at) / Fold change /veh ISYNA1 (11749810_s_at) / RFU ACY1 (11761880_at) / Fold change /veh ACY1 (11761880_at) / RFU 11764098_at / Fold change /veh 11764098_at / RFU SAMD14 (11745864_x_at) / Fold change /veh SAMD14 (11745864_x_at) / RFU NPB (11741838_a_at) / Fold change /veh NPB (11741838_a_at) / RFU TMPRSS6 (11731388_a_at) / Fold change /veh TMPRSS6 (11731388_a_at) / RFU KRTAP10-2 (11738614_at) / Fold change /veh KRTAP10-2 (11738614_at) / RFU ARHGAP8 /// PRR5-ARHGAP8 (11727945_x_at) / Fold change /veh ARHGAP8 /// PRR5-ARHGAP8 (11727945_x_at) / RFU KRTAP5-7 /// NADSYN1 (11734609_at) / Fold change /veh KRTAP5-7 /// NADSYN1 (11734609_at) / RFU RASL12 (11751679_a_at) / Fold change /veh RASL12 (11751679_a_at) / RFU CDKN2B (11736163_a_at) / Fold change /veh CDKN2B (11736163_a_at) / RFU PRF1 (11729649_at) / Fold change /veh PRF1 (11729649_at) / RFU, ZNF638 /// ZNF638-IT1 / Fold change vs veh, ZNF638 /// ZNF638-IT1 / RFU, PANK3 / Fold change vs veh, PANK3 / RFU, SH3YL1 / Fold change vs veh, SH3YL1 / RFU, ZEB2 / Fold change vs veh, ZEB2 / RFU, NRIP1 / Fold change vs veh, NRIP1 / RFU, PTTG1IP / Fold change vs veh, PTTG1IP / RFU, CAPN2 / Fold change vs veh, CAPN2 / RFU, MED14 / Fold change vs veh, MED14 / RFU, SNORA58 / Fold change vs veh, SNORA58 / RFU, C1orf63 / Fold change vs veh, C1orf63 / RFU, LRRFIP1 / Fold change vs veh, LRRFIP1 / RFU, NDUFAF7 / Fold change vs veh, NDUFAF7 / RFU, SLC12A2 / Fold change vs veh, SLC12A2 / RFU, IBTK / Fold change vs veh, IBTK / RFU, ESF1 / Fold change vs veh, ESF1 / Fold change vs veh, TMEM50B / RFU, TAOK1 / Fold change vs veh, TAOK1 / RFU, ACBD3 / Fold change vs veh, ACBD3 / RFU, TMA16 / Fold change vs veh, TMA16 / RFU, RWDD3 / Fold change vs veh, RWDD3 / RFU, BCAT1 / Fold change vs veh, BCAT1 / RFU, EDEM3 / Fold change vs veh, EDEM3 / RFU, TMEM33 / Fold change vs veh, TMEM33 / RFU, WDR75 / Fold change vs veh, WDR75 / RFU, AHCTF1 / Fold change vs veh, AHCTF1 / RFU, TFRC / Fold change vs veh, TFRC / RFU, ZDHHC17 / Fold change vs veh, ZDHHC17 / RFU, NOM1 / Fold change vs veh, NOM1 / RFU, ARL8B / Fold change vs veh, ARL8B / RFU, ZBTB11 / Fold change vs veh, ZBTB11 / RFU, TAMM41 / Fold change vs veh, TAMM41 / RFU, KIAA1704 /// LOC100996395 / Fold change vs veh, KIAA1704 /// LOC100996395 / RFU, ING1 / Fold change vs veh, ING1 / RFU, TRMT61B / Fold change vs veh, TRMT61B / RFU, FUBP3 / Fold change vs veh, FUBP3 / RFU, TP53 / Fold change vs veh, TP53 / RFU, TNKS2 / Fold change vs veh, TNKS2 / RFU, ZFP14 / Fold change vs veh, ZFP14 / RFU, ACTR2 / Fold change vs veh, ACTR2 / RFU, PPP3R1 / Fold change vs veh, PPP3R1 / RFU, PIK3R1 / Fold change vs veh, PIK3R1 / RFU, HNRNPA1 / Fold change vs veh, HNRNPA1 / RFU, RNF170 / Fold change vs veh, RNF170 / RFU, ZNF28 / Fold change vs veh, ZNF28 / RFU, RNGTT / Fold change vs veh, RNGTT / RFU, OGT / Fold change vs veh, OGT / RFU, BRD1 / Fold change vs veh, BRD1 / RFU, MARS / Fold change vs veh, MARS / RFU, ZNF655 / Fold change vs veh, ZNF655 / RFU, FAHD1 / Fold change vs veh, FAHD1 / RFU, BDP1 / Fold change vs veh, BDP1 / RFU, LRRCC1 / Fold change vs veh, LRRCC1 / RFU, ARID1A / Fold change vs veh, ARID1A / RFU, ZNF146 / Fold change vs veh, ZNF146 / RFU, ZNF330 / Fold change vs veh, ZNF330 / RFU, GPN3 / Fold change vs veh, GPN3 / RFU, C9orf123 / Fold change vs veh, C9orf123 / RFU, N4BP2L2 / Fold change vs veh, N4BP2L2 / RFU, ARFIP1 / Fold change vs veh, ARFIP1 / RFU, FAM179B / Fold change vs veh, FAM179B / RFU, BCL10 / Fold change vs veh, BCL10 / RFU, UHRF1BP1L / Fold change vs veh, UHRF1BP1L / RFU, BET1 / Fold change vs veh, BET1 / RFU, CNOT2 / Fold change vs veh, CNOT2 / RFU, ZNF268 / Fold change vs veh, ZNF268 / Fold change vs veh, ZNF507 / RFU, DGCR2 / Fold change vs veh, DGCR2 / RFU, WDSUB1 / Fold change vs veh, WDSUB1 / Fold change vs veh, HSP90B1 /// MIR3652 / RFU, ADSS / Fold change vs veh, ADSS / RFU, GK / Fold change vs veh, GK / RFU, ZNF148 / Fold change vs veh, ZNF148 / RFU, TAF9 / Fold change vs veh, TAF9 / RFU, SLC1A5 / Fold change vs veh, SLC1A5 / RFU, SLMO2 / Fold change vs veh, SLMO2 / RFU, ABCC4 / Fold change vs veh, ABCC4 / RFU, LOC101060439 /// RAP1B / Fold change vs veh, LOC101060439 /// RAP1B / RFU, RFX7 / Fold change vs veh, RFX7 / RFU, GTPBP10 / Fold change vs veh, GTPBP10 / RFU, CNEP1R1 / Fold change vs veh, CNEP1R1 / RFU, BIVM-ERCC5 /// ERCC5 / Fold change vs veh, BIVM-ERCC5 /// ERCC5 / RFU, ILF3 / Fold change vs veh, ILF3 / RFU 11762660_at / Fold change /veh 11762660_at / RFU VCAN (11757783_s_at) / Fold change /veh VCAN (11757783_s_at) / RFU DDX43 (11728927_at) / Fold change /veh DDX43 (11728927_at) / RFU KRT8 (11758188_x_at) / Fold change /veh KRT8 (11758188_x_at) / RFU NKD1 (11759106_at) / Fold change /veh NKD1 (11759106_at) / RFU SRD5A1 (11742802_a_at) / Fold change /veh SRD5A1 (11742802_a_at) / RFU TPSAB1 /// TPSB2 (11721975_s_at) / Fold change /veh TPSAB1 /// TPSB2 (11721975_s_at) / RFU GSTM3 (11746129_a_at) / Fold change /veh GSTM3 (11746129_a_at) / RFU IL23R (11737362_x_at) / Fold change /veh IL23R (11737362_x_at) / RFU TMEM51 (11727254_a_at) / Fold change /veh TMEM51 (11727254_a_at) / RFU PIWIL2 (11732686_x_at) / Fold change /veh PIWIL2 (11732686_x_at) / RFU ORM1 (11744905_x_at) / Fold change /veh ORM1 (11744905_x_at) / RFU CCDC152 (11743942_at) / Fold change /veh CCDC152 (11743942_at) / RFU ECM1 (11717891_a_at) / Fold change /veh ECM1 (11717891_a_at) / RFU IL23R (11748794_a_at) / Fold change /veh IL23R (11748794_a_at) / RFU TNFAIP8L3 (11732012_x_at) / Fold change /veh TNFAIP8L3 (11732012_x_at) / RFU MBOAT4 (11741988_at) / Fold change /veh MBOAT4 (11741988_at) / RFU 11764193_at / Fold change /veh 11764193_at / RFU TMEM53 (11763286_at) / Fold change /veh TMEM53 (11763286_at) / RFU MAGEB2 (11727129_at) / Fold change /veh MAGEB2 (11727129_at) / RFU TMEM200A (11744735_a_at) / Fold change /veh TMEM200A (11744735_a_at) / RFU CCDC152 (11751479_a_at) / Fold change /veh CCDC152 (11751479_a_at) / RFU FAM211A (11726209_a_at) / Fold change /veh FAM211A (11726209_a_at) / RFU RGS16 (11746705_a_at) / Fold change /veh RGS16 (11746705_a_at) / RFU VCAN (11755009_s_at) / Fold change /veh VCAN (11755009_s_at) / RFU RHOB (11743442_s_at) / Fold change /veh RHOB (11743442_s_at) / RFU RGS16 (11720943_a_at) / Fold change /veh RGS16 (11720943_a_at) / RFU RGS16 (11720944_at) / Fold change /veh RGS16 (11720944_at) / RFU, VPS4B / Fold change vs veh, VPS4B / RFU, CREB1 / Fold change vs veh, CREB1 / RFU, DNAJC13 / Fold change vs veh, DNAJC13 / RFU, GNAQ / Fold change vs veh, GNAQ / RFU, CDK5R1 / Fold change vs veh, CDK5R1 / RFU, ZRANB3 / Fold change vs veh, ZRANB3 / RFU, CUL4A / Fold change vs veh, CUL4A / RFU, CCNY / Fold change vs veh, CCNY / RFU, UFL1 / Fold change vs veh, UFL1 / RFU, COG3 / Fold change vs veh, COG3 / RFU, DIAPH2 / Fold change vs veh, DIAPH2 / RFU, SKA2 / Fold change vs veh, SKA2 / RFU, AFF3 / Fold change vs veh, AFF3 / RFU, LMF1 / Fold change vs veh, LMF1 / RFU, IPO11 / Fold change vs veh, IPO11 / RFU, DFFB / Fold change vs veh, DFFB / RFU, FOXP1 / Fold change vs veh, FOXP1 / RFU, CARD8 / Fold change vs veh, CARD8 / RFU, STRN3 / Fold change vs veh, STRN3 / RFU, ADK / Fold change vs veh, ADK / RFU, RASSF2 / Fold change vs veh, RASSF2 / RFU, WIPF1 / Fold change vs veh, WIPF1 / RFU, LARP1B / Fold change vs veh, LARP1B / RFU, RASA1 / Fold change vs veh, RASA1 / RFU, RB1 / Fold change vs veh, RB1 / RFU, PPFIA1 / Fold change vs veh, PPFIA1 / RFU, MAT2A / Fold change vs veh, MAT2A / RFU, CCT5 / Fold change vs veh, CCT5 / RFU, WDR92 / Fold change vs veh, WDR92 / RFU, CUX1 / Fold change vs veh, CUX1 / RFU, TTC7A / Fold change vs veh, TTC7A / RFU, TMEM135 / Fold change vs veh, TMEM135 / RFU, DEPTOR / Fold change vs veh, DEPTOR / RFU, CPM / Fold change vs veh, CPM / RFU, DNAJB6 / Fold change vs veh, DNAJB6 / RFU, CACNA2D3 / Fold change vs veh, CACNA2D3 / RFU, DTX4 / Fold change vs veh, DTX4 / RFU, TFCP2 / Fold change vs veh, TFCP2 / RFU, GMCL1 /// GMCL1P1 / Fold change vs veh, GMCL1 /// GMCL1P1 / RFU, AEBP2 / Fold change vs veh, AEBP2 / RFU, SNHG1 /// SNORD22 /// SNORD25 /// SNORD26 /// SNORD27 /// SNORD28 /// SNORD29 /// SNORD31 / Fold change vs veh, SNHG1 /// SNORD22 /// SNORD25 /// SNORD26 /// SNORD27 /// SNORD28 /// SNORD29 /// SNORD31 / Fold change (Aza/veh), C12orf56 (ProbeSet 11735607_a_at) / Fold change (ACY-1035/veh), C12orf56 (ProbeSet 11735607_a_at) / Fold change (Aza/veh), FGFR1OP (ProbeSet 11751329_s_at) / Fold change (ACY-1035/veh), FGFR1OP (ProbeSet 11751329_s_at) / Fold change (Aza/veh), VPS36 (ProbeSet 11739960_a_at) / Fold change (ACY-1035/veh), VPS36 (ProbeSet 11739960_a_at) / RFU SYPL1 (11715823_x_at) / Fold change /veh SYPL1 (11715823_x_at) / RFU IGFBP7 (11715501_s_at) / Fold change /veh IGFBP7 (11715501_s_at) / RFU REEP3 (11722064_at) / Fold change /veh REEP3 (11722064_at) / RFU IGLL1 (11728026_x_at) / Fold change /veh IGLL1 (11728026_x_at): dose or concentration left out as unconfirmed
Conditions: MV-4-11 cells, 48 hours

## Nc1ccc(-c2cccs2)cc1NC(=O)c1ccc2c(c1)cc(C1CC1)n2CCN1CCOCC1 [ACY-1035]
  RFU ARHGAP8 /// PRR5-ARHGAP8 (11727945_x_at): 101.90 RFU
